In patent US8030358B2, “Methods and pharmaceutical compositions for decorporation of radioactive compounds” (priority 2007, dated 2011):

How the values were obtained:
[1] = Bioavailability study (oral C2E5 vs intravenous DTPA); assay type: in vivo, rat
Procedure: A bioavailability study was conducted in which five rats were intravenously administered 5 mg of DTPA and another 5 rats were orally administered an equivalent […] dose (approximately 7 mg) of C2E5 in a 10% ethanol solution. Blood samples were obtained at regular intervals from an in-dwelling catheter that had been surgically implanted prior to the administration of the doses.

[2] = Small Animal Decorporation Efficacy Study; assay type: in vivo; settings: rats; oral C2E5 compared with IV administration of equivalent doses of DTPA

With `CCOC(=O)CN(CCN(CC(=O)OCC)CC(=O)OCC)CCN(CC(=O)OCC)CC(=O)OCC` [C2E5, DTPA Pentaethyl Ester] the bioavailability ([1]; rat model, oral, approximately 7 mg C2E5 in a 10% ethanol solution, compared with 5 mg DTPA intravenously) was ~100%, the “C2E5 detected in the plasma” value ([1]; rat, after oral C2E5 in a 10% ethanol solution) was “no C2E5 can be detected in the plasma” and the “conversion to DTPA after absorption from the gastrointestinal tract” value ([1]; rat, oral C2E5) was “quantitatively and rapidly converted to DTPA”. The “blood concentration profile compared to IV DTPA” value ([1]; rat, oral C2E5 vs 5 mg DTPA intravenously) was “lower blood levels and a longer duration compared to IV DTPA” and the “decorporation of ^241Am” value [2] was “compared favorably”.
